Assay results published in the supplement of paper PMC10307832.

Tests used:
Assay in all cases: relative viability (nuclei count vs DMSO), 5 days (fraction); higher = more cells survive
Bromopyruvate = compound: C(C(=O)C(=O)O)Br [Bromopyruvate]
How it was run: (§1)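 Five library-drug doses, separated by factors of √10, were pinned into 1536-well plates holding lung cancer cell lines after an overnight stay at 37 °C. Cells were fixed, permeabilised and Hoechst-stained in one step after 5 days without medium change, then imaged at 4×. Viability compares treated-well with vehicle-well nuclei, counted in MetaXpress, as a median across plates. Passing plates had control CV below 25% and at least one doubling.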

Bicalutamide = compound: CC(O)(CS(=O)(=O)c1ccc(F)cc1)C(=O)Nc1ccc(C#N)c(C(F)(F)F)c1 [Bicalutamide]
How it was run: as §1

[1] = compound: C(C(=O)C(=O)O)Br [Bromopyruvate] + CC(=O)Nc1cccc(-n2c(=O)n(C3CC3)c(=O)c3c(Nc4ccc(I)cc4F)n(C)c(=O)c(C)c32)c1 [Trametinib] (partner 0.02 µM)
How it was run: (§2)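 Lung cancer cell lines, seeded in 1536-well plates, were treated the following day by pin tool with a single drug or with five library-drug doses (not always all listed) in √10 steps on top of a fixed anchor-drug dose. Cells were fixed and nuclei stained in one step after 5 days, and nuclei were counted. Relative viability is the nuclei count for treated wells divided by that for vehicle wells, reported as medians of duplicate plates.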

[2] = compound: CC(O)(CS(=O)(=O)c1ccc(F)cc1)C(=O)Nc1ccc(C#N)c(C(F)(F)F)c1 [Bicalutamide] + CC1(C)CCC(c2ccc(Cl)cc2)=C(CN2CCN(c3ccc(C(=O)NS(=O)(=O)c4ccc(N[C@H](CCN5CCOCC5)CSc5ccccc5)c(S(=O)(=O)C(F)(F)F)c4)cc3)CC2)C1 [Navitoclax] (partner 0.5 µM)
How it was run: as §2

| Cell Line | relative viability (Bromopyruvate; 1 µM) | relative viability (Bromopyruvate; 3.162 µM) | relative viability (Bromopyruvate; 10 µM) | relative viability (Bromopyruvate; 31.62 µM) | relative viability (Bromopyruvate; 100 µM) | relative viability (Bicalutamide; 0.08 µM) | relative viability (Bicalutamide; 0.253 µM) | relative viability (Bicalutamide; 0.8 µM) | relative viability (Bicalutamide; 2.53 µM) | relative viability ([1]; first compound 1 µM) | relative viability ([1]; first compound 3.162 µM) | relative viability ([1]; first compound 10 µM) | relative viability ([1]; first compound 31.62 µM) | relative viability ([1]; first compound 100 µM) | relative viability ([2]; first compound 0.08 µM) | relative viability ([2]; first compound 0.253 µM) | relative viability ([2]; first compound 0.8 µM) | relative viability ([2]; first compound 2.53 µM) |
| --- | --- | --- | --- | --- | --- | --- | --- | --- | --- | --- | --- | --- | --- | --- | --- | --- | --- | --- |
| LC-2-ad | 1.01 | 0.985 | 1.03 | 0.924 | 0.964 | 1.09 | 0.935 | 1.08 | 0.986 | 0.892 | 0.904 | 0.872 | 0.958 | 0.945 | 0.484 | 0.484 | 0.449 | 0.475 |
| COR-L 105 | 0.87 | 1.06 | 0.866 | 0.838 | 0.687 | 1.05 | 0.814 | 1.03 | 0.825 | 0.432 | 0.449 | 0.417 | 0.422 | 0.329 | 0.694 | 0.696 | 0.726 | 0.703 |
| NCI-H1355 | 1.01 | 1.03 | 1.08 | 0.959 | 0.953 | 1.03 | 0.918 | 1.09 | 0.946 | 0.415 | 0.467 | 0.335 | 0.452 | 0.445 | 1.06 | 0.919 | 0.928 | 0.983 |
| H3255 | 0.953 | 0.999 | 1.02 | 1.01 | 1.12 | 0.969 | 0.896 | 1.02 | 0.907 | 0.55 | 0.547 | 0.647 | 0.574 | 0.718 | 0.524 | 0.489 | 0.631 | 0.4 |
| NCI-H2009 | 0.975 | 1.04 | 0.96 | 0.925 | 0.734 | 1.11 | 1.05 | 1.04 | 0.927 | 0.277 | 0.328 | 0.246 | 0.26 | 0.245 | 1.29 | 1.24 | 1.14 | 1.08 |
| NCI-H1734 | 0.971 | 1.02 | 1.15 | 1 | 0.979 | 0.991 | 0.886 | 1.14 | 0.926 | 0.743 | 0.765 | 0.64 | 0.717 | 0.66 | 0.862 | 0.719 | 1.13 | 0.786 |
| HOP-62 | 1.06 | 0.981 | 0.936 | 1.03 | 1.03 | 1.12 | 0.988 | 1.06 | 1.03 | 0.405 | 0.343 | 0.372 | 0.408 | 0.485 | 1.03 | 1.12 | 1.03 | 0.982 |
| LOU-NH91 | 1.09 | 1.01 | 0.973 | 0.984 | 1.01 | 1.09 | 0.765 | 1.05 | 1.04 | 0.79 | 0.761 | 0.799 | 0.826 | 0.866 | 0.676 | 0.545 | 0.865 | 0.818 |
| ChaGo-K-1 | 0.979 | 0.995 | 1.07 | 1 | 1.02 | 0.998 | 0.962 | 1.18 | 0.976 | 0.887 | 0.911 | 0.963 | 0.855 | 0.903 | 0.983 | 1.02 | 1.17 | 0.793 |
| NCI-H23 | 1.01 | 1.19 | 0.979 | 0.909 | 0.931 | 1.02 | 0.9 | 1.08 | 0.812 | 0.371 | 0.375 | 0.346 | 0.354 | 0.336 | 0.86 | 0.642 | 0.949 | 0.754 |
| PC-3 [JPC-3] | 1.08 | 1.04 | 0.986 | 1.01 | 1.04 | 1.07 | 1.03 | 1.16 | 1.03 | 0.734 |  | 0.787 |  | 0.734 | 0.867 | 0.775 | 0.869 | 0.91 |
| NCI-H1437 | 1.05 | 0.961 | 1.04 | 0.972 | 1 | 0.997 | 0.966 | 1.07 | 0.984 | 0.552 | 0.529 | 0.556 | 0.506 | 0.484 | 1.1 | 1.17 | 1.14 | 1.11 |
| NCI-H520 | 0.926 | 1.17 | 0.989 | 1.07 | 0.855 | 0.948 | 0.952 | 1.17 | 0.906 | 0.653 | 0.716 | 0.755 | 0.637 | 0.646 | 0.97 | 1.1 | 1.16 | 1.13 |
| NCI-H1666 | 0.971 | 0.98 | 1.04 | 0.937 | 0.965 | 1.04 | 0.854 | 0.96 | 1.01 | 0.865 | 0.858 | 0.825 | 0.852 | 0.911 | 0.939 | 1.14 | 0.889 | 0.93 |
| NCI-H1651 | 1.01 | 0.991 | 1.07 | 0.958 | 0.924 | 0.995 | 0.93 | 1.16 | 0.972 | 0.817 | 0.866 | 0.891 | 0.825 | 0.836 | 0.89 | 0.957 | 0.956 | 0.951 |
| NCI-H1755 | 0.977 | 0.964 | 1.06 | 1.01 | 1.02 | 0.988 | 1.01 | 1.05 | 0.876 | 0.827 | 0.831 | 0.722 | 0.768 | 0.796 | 0.98 | 0.956 | 1.02 | 0.961 |
| NCI-H727 | 0.959 | 1.19 | 1.09 | 1.08 | 1.03 | 1.02 | 0.807 | 1.13 | 1.05 | 0.42 | 0.376 | 0.461 | 0.428 | 0.36 | 0.457 | 0.415 | 0.405 | 0.373 |
| HARA | 1.01 | 1.1 | 0.997 | 0.983 | 1.05 | 1.02 | 0.802 | 1.01 | 0.953 | 0.709 | 0.814 |  | 0.633 | 1 | 1.15 | 1.15 | 1.11 | 1.13 |
